In article PMC8445441, “Elucidating the mechanism by which synthetic helper peptides sensitize Pseudomonas aeruginosa to multiple antibiotics” (PLoS Pathogens, 2021):
Several values for one entry are separate records, joined by “and”; a condition that tells them apart may be missing. Equal entries are not always repeated. Where two headings read alike, the source gives them in different places.

Assays:
[1] = system: clinical P. aeruginosa isolates; test: microbe, parasite or virus in culture; settings: for MIC: Pseudomonas aeruginosa, 18 h
Description: The bacterial strains, primers and plasmids used in this study are listed in S5 Table. […] Bacteria were cultured in LB medium or cation-adjusted Muller-Hinton broth (CA-MHB) at 37 °C with agitation at 220 rpm. All the antibiotics and chemical compounds used in this study were purchased from Sigma-Aldrich.
(§1) The MIC tests were performed in triplicate using broth microdilution in accordance with Clinical and Laboratory Standards Institute (CLSI) recommendations (http://iacld.ir/DL/public/CLSI-2018-M100-S28.pdf). Briefly, drugs were two-fold diluted in MHB and mixed with an equal volume of bacterial suspensions containing approximately 1 × 10^6 CFU/mL in 96-well microliter plate. After 18 h incubation at 37 °C, the MIC values were defined as the lowest concentrations of antibiotics with no visible growth of bacteria. […] Otherwise, 1/4 MIC of the peptide was used in the combination. […] If needed, membrane compounds PG, PE, PC, CL or LPS, or membrane stabilizers MgCl2 or CaCl2, or efflux pumps inhibitor PAβN were added to the broth medium to clarify the effect of other substances on the synergy between peptide and antibiotics. All the tests were performed in triplicate.

P. aeruginosa PAO1 = test: microbe, parasite or virus in culture; settings: for MIC: Pseudomonas aeruginosa, PAO1, 18 h
Description: as §1
The fractional inhibitory concentration (FIC) indices were calculated using the previously described formula FICI = FICa + FICb = MICac/MICa + MICbc/MICb. The FICI was interpreted according to EUCAST [65] as follows: synergistic, FICI≤0.5; additive, 0.5<FICI≤1; indifferent, 1<FICI<2; antagonistic, FICI ≥2. For the FICI calculations, twice the highest concentration tested was used in the cases where the MIC was not reached.

[2] = read-out: Antibiotic sensibility (MIC) of clinical P. aeruginosa isolate AUMC-Pa-1
[3] = read-out: Antibiotic sensibility (MIC) of clinical P. aeruginosa isolate AUMC-Pa-2
[4] = read-out: Antibiotic sensibility (MIC) of clinical P. aeruginosa isolate AUMC-Pa-3
[5] = read-out: Antibiotic sensibility (MIC) of clinical P. aeruginosa isolate AUMC-Pa-4
[6] = read-out: Antibiotic sensibility (MIC) of clinical P. aeruginosa isolate AUMC-Pa-5
[7] = read-out: Antibiotic sensibility (MIC) of clinical P. aeruginosa isolate AUMC-Pa-6
[8] = read-out: Antibiotic sensibility (MIC) of clinical P. aeruginosa isolate HM-214
[9] = read-out: Antibiotic sensibility (MIC) of clinical P. aeruginosa isolate NR-31040
[10] = read-out: Antibiotic sensibility (MIC) of clinical P. aeruginosa isolate NR-31041
[11] = read-out: MICa: the MIC of antibiotics
[12] = S3 Table, PAO1, antibiotic + 2 μM D-11
[13] = S3 Table, PAO1, antibiotic + 4 μM D-11
[14] = read-out: Antibiotic sensibility (MIC) of clinical P. aeruginosa isolate AUMC-Pa-1, strain AUMC-Pa-1, antibiotic alone
[15] = read-out: Antibiotic sensibility (MIC) of clinical P. aeruginosa isolate AUMC-Pa-2, strain AUMC-Pa-2, antibiotic alone
[16] = read-out: Antibiotic sensibility (MIC) of clinical P. aeruginosa isolate AUMC-Pa-3, strain AUMC-Pa-3, antibiotic alone
[17] = read-out: Antibiotic sensibility (MIC) of clinical P. aeruginosa isolate AUMC-Pa-4, strain AUMC-Pa-4, antibiotic alone
[18] = read-out: Antibiotic sensibility (MIC) of clinical P. aeruginosa isolate AUMC-Pa-5, strain AUMC-Pa-5, antibiotic alone
[19] = read-out: Antibiotic sensibility (MIC) of clinical P. aeruginosa isolate AUMC-Pa-6, strain AUMC-Pa-6, antibiotic alone
[20] = read-out: Antibiotic sensibility (MIC) of clinical P. aeruginosa isolate HM-214, strain HM-214, antibiotic alone
[21] = read-out: Antibiotic sensibility (MIC) of clinical P. aeruginosa isolate NR-31040, strain NR-31040, antibiotic alone
[22] = read-out: Antibiotic sensibility (MIC) of clinical P. aeruginosa isolate NR-31041, strain NR-31041, antibiotic alone
[23] = S3 Table, antibiotic alone, PAO1

| SMILES | MIC [1, 2] [µM] | MIC [1, 3] [µM] | MIC [1, 4] [µM] | MIC [1, 5] [µM] | MIC [1, 6] [µM] | MIC [1, 7] [µM] | FICI (P. aeruginosa PAO1; [12]) | FICI (P. aeruginosa PAO1; [13]) | MICac: the MIC for the antibiotic in the combination (P. aeruginosa PAO1; S3 Table, PAO1, with 2 μM D-11) | MICac: the MIC for the antibiotic in the combination (P. aeruginosa PAO1; S3 Table, PAO1, with 4 μM D-11) | MIC [1, 14] [µM] | MIC [1, 15] [µM] | MIC [1, 16] [µM] | MIC [1, 17] [µM] | MIC [1, 18] [µM] | MIC [1, 19] [µM] | MIC [1, 20] [µM] | MIC [1, 21] [µM] | MIC [1, 22] [µM] | MICa: the MIC of antibiotics (P. aeruginosa PAO1; [23]) | also measured |
| --- | --- | --- | --- | --- | --- | --- | --- | --- | --- | --- | --- | --- | --- | --- | --- | --- | --- | --- | --- | --- | --- |
| CCCCc1ccc(C(=O)O)nc1 [Fusaric Acid] | > 128 | > 128 | > 128 | > 128 | > 128 | > 128 | 1.063 | 1.125 | >128/>128 μM | >128/>128 μM |  |  |  |  |  |  |  |  |  |  | MIC [1, 8]: > 128 µM; MIC [1, 9]: > 128 µM; MIC [1, 10]: > 128 µM; MIC (P. aeruginosa PAO1; [11]): > 128 µM |
| CNC(C)C1CCC(N)C(OC2C(N)CC(N)C(OC3OCC(C)(O)C(NC)C3O)C2O)O1 (stereo not shown) [Gentamicin] |  |  |  |  |  |  | 2.063 | 2.125 | 2 µM | 2 µM | 0.5 | 0.25 | 0.0625 | 0.5 | 0.5 | 2 | 1 | 32 | 32 | 1 µM |  |
| NC[C@H]1O[C@H](O[C@H]2[C@H](O)[C@@H](O[C@H]3O[C@H](CO)[C@@H](O)[C@H](N)[C@H]3O)[C@H](N)C[C@@H]2N)[C@H](O)[C@@H](O)[C@@H]1O [Kanamycin] |  |  |  |  |  |  | 2.063 | 2.125 | 128 µM | 128 µM |  |  |  |  |  |  |  |  |  | 64 µM | Antibiotic sensibility (MIC) of clinical P. aeruginosa isolate AUMC-Pa-1 ([1]; strain AUMC-Pa-1, antibiotic alone): 64 µM; Antibiotic sensibility (MIC) of clinical P. aeruginosa isolate AUMC-Pa-2 ([1]; strain AUMC-Pa-2, antibiotic alone): 16 µM; Antibiotic sensibility (MIC) of clinical P. aeruginosa isolate AUMC-Pa-3 ([1]; strain AUMC-Pa-3, antibiotic alone): 32 µM; Antibiotic sensibility (MIC) of clinical P. aeruginosa isolate AUMC-Pa-4 ([1]; strain AUMC-Pa-4, antibiotic alone): 32 µM; Antibiotic sensibility (MIC) of clinical P. aeruginosa isolate AUMC-Pa-5 ([1]; strain AUMC-Pa-5, antibiotic alone): 32 µM; Antibiotic sensibility (MIC) of clinical P. aeruginosa isolate AUMC-Pa-6 ([1]; strain AUMC-Pa-6, antibiotic alone): 32 µM; Antibiotic sensibility (MIC) of clinical P. aeruginosa isolate HM-214 ([1]; strain HM-214, antibiotic alone): 128 µM; Antibiotic sensibility (MIC) of clinical P. aeruginosa isolate NR-31040 ([1]; strain NR-31040, antibiotic alone): 128 µM; Antibiotic sensibility (MIC) of clinical P. aeruginosa isolate NR-31041 ([1]; strain NR-31041, antibiotic alone): 128 µM |
| CC(=O)NC[C@H]1CN(c2ccc(N3CCOCC3)c(F)c2)C(=O)O1 [Linezolid] |  |  |  |  |  |  | 1.063 | 1.125 | >128/>128 μM | >128/>128 μM | > 128 | > 128 | > 128 | > 128 | > 128 | > 128 | > 128 | > 128 | > 128 |  | MIC (P. aeruginosa PAO1; read-out: MICa: the MIC of antibiotics, S3 Table, antibiotic alone, PAO1): > 128 µM |
| CN(C)C(=O)C(CCN1CCC(O)(c2ccc(Cl)cc2)CC1)(c1ccccc1)c1ccccc1 [Loperamide] | > 128 | > 128 | > 128 | > 128 | > 128 | > 128 |  |  |  |  |  |  |  |  |  |  |  |  |  |  | MIC [1, 8]: > 128 µM; MIC [1, 9]: > 128 µM; MIC [1, 10]: > 128 µM; FICI (P. aeruginosa PAO1): 1.063 and 1.125; MICac: the MIC for the antibiotic in the combination (P. aeruginosa PAO1): >128/>128 μM; MIC (P. aeruginosa PAO1; [11]): > 128 µM |
| [H]/N=C(/N)N[C@H]1[C@H](O)[C@@H](O)[C@H](O[C@@H]2O[C@@H](C)[C@](O)(C=O)[C@H]2O[C@@H]2O[C@@H](CO)[C@H](O)[C@@H](O)[C@@H]2NC)[C@@H](N/C(N)=N\[H])[C@@H]1O [Streptomycin] |  |  |  |  |  |  | 1.063 | 1.125 | 64/64 μM | 64/64 μM | 16 | 8 | 128 | 8 | 8 | 16 | 128 | > 128 | > 128 | 64/64 μM |  |
